Earlier results as cited in patent publication US20210186960A1, “MODULATORS OF INDOLEAMINE 2,3-DIOXYGENASE” (GLAXOSMITHKLINE INTELLECTUAL PROPERTY DEVELOPMENT LIMITED, priority 2017, published 2021).

Key:
[1] = tested on: conversion of T cells into CD4+FoxP3+ Tregs; conditions: co-culture of DCs and naive CD4+CD25- T cells; cited from earlier work
[2] = tested on: PANO2 pancreatic cells; conditions: orally dosed, cited from earlier work

SMILES: NS(=O)(=O)NCCNc1nonc1C(=NO)Nc1ccc(F)c(Br)c1 [INCB204360]
- conversion of T cells into CD4+FoxP3+ Tregs [1]: blocked the conversion
- inhibition of tumor growth ([2]; PANO2 syngeneic model, immunocompetent mice): significant dose-dependent inhibition of tumor growth
- effect on tumor growth ([2]; same tumor implanted in immune-deficient mice): without effect
